Structures can show the parent of a compound that is named as a salt.
Columns and labels:
gastric secretion = assay: Inhibition of Gastric Secretion, pylorus-ligated rats (Experiment 2); assay type: in vivo, Sprague-Dawley rats; conditions: relative to omeprazole (equation III), 20 mg/kg intraduodenally, pylorus-ligated rats, 5 hours
Method: In accordance with the method disclosed in Shay, H., et al., Gastroenterology 5, 43-61(1945), Experiment 2 was carried out.
Sprague-Dawley rats having a body weight of 170±10 g were divided into 3 groups(n=5) and deprived of food for 24 hours before the experiment with free access to water. Under ether anesthesia, the abdomen was incised, and the pylorus was ligated. As a comparative group, Group 1 was administered intraduodenally in a volume of 0.5 ml/200 g of 30% aqueous polyethylene glycol 400 solution. Groups 2 and 3 were administered intraduodenally with the compound of Example 34 and omeprazole, respectively, each of which was suspended in 30% aqueous polyethylene glycol 400 solution at a concentration of 20 mg/kg. After closing the abdominal cavity, the rats were placed for 5 hours and then killed by cervical dislocation. The stomach was extracted to obtain gastric juice.
The gastric juice was centrifuged at 1,000 g to remove precipitates. The amount and acidity of the gastric juice were measured. Relative volumes, relative acid concentrations and relative acid outputs of the test compounds were calculated from equations(I), (II) and (III) and the results are shown in Table 2.
(I) = the average amount of gastric juice of Group 1 - the
average amount of gastric juice of Group 2)/(the average
amount of gastric juice of Group 1 - the average amount
of gastric juice of Group 3)
Relative acid concentration
(II) = (the average acidity of Group 1 - the average
acidity of Group 2)/(the average acidity of Group 1 - the average
(III) = (the total amount of acid output of Group 1 - the
total amount of acid output of Group 2)/(the total amount of acid
output of Group 1 - the total amount of acid output of Group

[1] = biological target: T1, Proton Pump (H^+ /K^+ ATPase) (Oryctolagus cuniculus, UniProt P27112); assay: Inhibition of Proton Pump (H+/K+ ATPase) Activity, in vitro enzyme reaction (Experiment 1); assay type: biochemical, New Zealand white rabbit; conditions: for Effect ratio: IC50 of Omeprazole / IC50 of test compound; for IC50: K+-stimulated H+/K+ ATPase activity, rabbit gastric microsomes, pH 7.2, 37° C., 15 min prereaction, 30 min reaction, read-out: IC50 of test compound, inhibition (50%) of the proton pump activity
T1 construct: The microsomes thus obtained were used as an enzyme source of the in vitro enzyme reaction study of proton pump; from tissue; host or cells: rabbit stomach, mucosal scrapings, microsomes (180,000 g pellet)
Method: A New Zealand white rabbit was killed by blowing its head and the stomach was taken out. The contents of the stomach were removed and the stomach walls were washed with was saline. The inner wall of the stomach was scratched out with a slide glass and the cells thus obtained were homogenized in 0.25M sucrose buffer by means of a Teflon-glass homogenizer. The homogenous solution was centrifuged at 10,000 g for 10 minutes and the supernatant was further centrifuged at 20,000 g for 20 minutes. The supernatant thus obtained was centrifuged at an ultra-high speed of 180,000 g for 1 hour. The pellets precipitated were collected by discarding the supernatant and suspended in 50 mM Tris-HCl buffer having pH 7.2. The suspension was dialyzed twice with the same buffer(of 1,000 times volume) for 3 hours and stored into liquid nitrogen.
The above centrifugation and dialysis were carried out at 4° C. The microsomes thus obtained were used as an enzyme source of the in vitro enzyme reaction study of proton pump.
The inhibitory effects of proton pump activity by the compounds of the present invention were measured by the in vitro enzyme reaction study. The proton pump activity stimulated by Mg^++ was used as a negative comparative group, and the activity stimulated by Mg^++ and K^+ was used as a positive comparative group. The comparative compound was omeprazole.
Test tubes were divided into 4 groups: Group 1 as negative comparative group(n=3), Group 2 as positive comparative group(n=3), Group 3(n=5) to be administered with the compound of the present invention and Group 4(n=5) to be administered with the comparative compound. The inhibitory effects of proton pump activity of Groups 3 and 4 were measured by employing the compound prepared in Example 34 and omeprazole, respectively, each of which was dissolved in dimethylsulfoxide at 5 different concentrations.
To each of Groups 1, 2, 3 and 4, were added 0.1 ml of magnesium chloride(40 mM) dissolved in 50 mM Tris-HCl buffer (pH 7.2) and […] of the enzyme source prepared in Experiment 1-1. Then, 0.1 ml of potassium chloride(500 mM) and 0.1 ml of ammonium chloride(100 mM) dissolved in 50 mM Tris-HCl buffer(pH 7.2) were added to all groups except for Group 1.
0.1 ml of dimethylsulfoxide was added to each of Groups 1 and 2; and to Group 3 was added 0.01 ml of the solution in which the compound prepared in Example 34 was dissolved in dimethylsulfoxide at 5 different concentrations. To Group 4, 0.01 ml of the solution prepared by dissolving omprazole in dimethylsulfoxide at 5 different concentrations(37.6, 21.4, 12.2, 7.0 and 4.0 μM) was added. 50 mM Tris-HCl buffer was added thereto so as to make the total volume 0.4 ml.
Thereafter, the test tubes of each Group were placed at 37° C. for 15 minutes for the prereaction. 0.1 ml of ATP solution(33.3 mM), which was prepared by adding Tris-ATP 50 mM to Tris-HCl buffer having pH 7.2, was added until the reaction volume became 0.5 ml. The final concentrations of MgCl2, KCl, NH4 Cl, ATP, enzyme and Tris-HCl were 8 mM, 100 mM, 20 mM, 6.7 mM, 100μg/ml and 50 mM, respectively. After the reaction was carried out at 37° C. for 30 minutes, 25% cold trichloroacetic acid was added to terminate the enzyme reaction. The released inorganic phosphate was measured by an automatic analyzer(SBA 300, Gilford).
The difference between Group 1 and Group 2 represents the proton pump activity activated by K^+ only. The inhibition percentages of Groups 3 and 4 were calculated from Litchfield-wilcoxon equation[see J. Pharmacol. Exptl. Ther. 96, 99(1949)]. The concentrations of the test compounds which inhibit 50% of the proton pump activity are represented as IC50 in Table 1.

T1 sequence (P27112 whole entry): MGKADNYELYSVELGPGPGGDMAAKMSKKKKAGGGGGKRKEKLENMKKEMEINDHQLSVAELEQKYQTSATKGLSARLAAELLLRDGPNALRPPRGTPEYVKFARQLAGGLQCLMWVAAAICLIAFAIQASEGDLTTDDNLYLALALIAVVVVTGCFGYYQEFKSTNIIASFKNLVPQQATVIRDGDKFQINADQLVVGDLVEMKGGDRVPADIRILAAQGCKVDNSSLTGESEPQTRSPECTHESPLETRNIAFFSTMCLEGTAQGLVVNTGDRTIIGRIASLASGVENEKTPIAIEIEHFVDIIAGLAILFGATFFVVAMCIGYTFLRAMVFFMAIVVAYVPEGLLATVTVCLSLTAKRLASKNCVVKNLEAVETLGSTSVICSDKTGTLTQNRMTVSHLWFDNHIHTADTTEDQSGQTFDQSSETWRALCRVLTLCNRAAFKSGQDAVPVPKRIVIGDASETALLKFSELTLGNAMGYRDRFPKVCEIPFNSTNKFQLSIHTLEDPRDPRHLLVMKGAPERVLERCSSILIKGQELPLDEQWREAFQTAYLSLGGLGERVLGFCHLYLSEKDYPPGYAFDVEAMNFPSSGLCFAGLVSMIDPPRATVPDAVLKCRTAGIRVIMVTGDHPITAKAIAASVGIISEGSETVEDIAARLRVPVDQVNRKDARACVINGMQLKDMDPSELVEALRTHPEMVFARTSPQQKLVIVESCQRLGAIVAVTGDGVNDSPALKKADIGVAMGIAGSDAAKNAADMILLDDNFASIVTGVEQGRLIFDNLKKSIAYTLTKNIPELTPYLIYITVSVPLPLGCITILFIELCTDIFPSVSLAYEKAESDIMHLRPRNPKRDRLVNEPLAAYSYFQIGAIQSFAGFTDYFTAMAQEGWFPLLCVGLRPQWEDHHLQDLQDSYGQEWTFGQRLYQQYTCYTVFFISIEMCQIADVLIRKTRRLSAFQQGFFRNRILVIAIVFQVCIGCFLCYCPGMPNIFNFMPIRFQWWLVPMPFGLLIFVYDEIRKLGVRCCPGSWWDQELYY
T1 sequence (P18597 whole entry partner): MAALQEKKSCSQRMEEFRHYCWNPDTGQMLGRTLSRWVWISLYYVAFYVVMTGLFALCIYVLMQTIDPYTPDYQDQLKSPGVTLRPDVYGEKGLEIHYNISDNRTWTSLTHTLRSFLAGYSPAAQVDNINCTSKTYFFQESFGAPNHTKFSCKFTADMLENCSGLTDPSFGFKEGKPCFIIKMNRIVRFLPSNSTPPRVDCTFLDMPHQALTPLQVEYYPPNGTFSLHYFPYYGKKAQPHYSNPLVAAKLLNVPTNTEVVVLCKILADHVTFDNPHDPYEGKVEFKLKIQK

SMILES	Effect ratio [1]	IC50 [1]	Relative Acid Output (gastric secretion)
CN(c1ccccc1)c1nc(N2CCc3ccccc3C2)c2ccccc2n1 [Example 19, 2-(N-Methylphenylamino)-4-(1,2,3,4-Tetrahydroisoquinoline-2-Yl)QuinazolineHydrochloride]	1.83	5.2 µM	0.68
CN(c1ccc(F)cc1)c1nc(N2CCc3ccccc3C2)c2ccccc2n1.Cl [Example 20, 2-(4-Fluoro-N-Methylphenyl-Amino)-4-(1,2,3,4-Tetrahydroisoquinoline-2-Yl)Quinazoline Hydrochloride]	1.10	8.4 µM	0.92
CC1c2ccccc2CCN1c1nc(N(C)c2ccccc2)nc2ccccc12.Cl (stereo not drawn) [Example 24, 2-(N-Methylphenylamino)-4-(1-Methyl-1,2,3,4-Tetrahydroisoquinoline-2-Yl)Quinazoline Hydrochloride]	~ 1.29	~12.5 µM	0.36
Cc1cc(F)ccc1Nc1nc(N2CCc3cccc4c3C2CC4)c2ccccc2n1.Cl (stereo not drawn) [Example 27, 2-(4-Fluoro-2-Methylphenyl-Amino)-4-(1,8-Ethano-1,2,3,4-Tetrahydroisoquinoline-2-Yl) Quinazoline Hydrochloride]	1.97	2.9 µM	0.30
COc1cccc2c(N3CCc4ccccc4C3)nc(N(C)c3ccccc3)nc12.Cl [Example 29, 8-Methoxy-2-(N-Methylphenyl-Amino)-4-(1,2,3,4-Tetrahydroisoquinoline-2-Yl)Quinazoline Hydrochloride]	1.47	4.9 µM	0.84
COc1cccc2c(N3CCc4ccccc4C3)nc(N(C)c3ccc(F)cc3)nc12.Cl [Example 32, 8-Methoxy-2-(4-Fluoro-N-Methyl-Phenylamino)-4-(1,2,3,4-Tetrahydroisoquinoline-2-Yl) Quinazoline Hydrochloride]	> 0.58	> 16 µM	0.43
COc1cccc2c(N3CCc4ccccc4[C@@H]3C)nc(Nc3ccc(F)cc3C)nc12.Cl [Example 36, (S)-8-Methoxy-2-(4Fluoro-2-Methylphenylamino)-4-(1-Methyl-1,2,3,4-Tetrahydroisoquinoline-2-Yl)Quinazoline Hydrochloride]	1.28	4 µM	0.67

Now those with a lower IC50 [1], led by results:

Effect ratio [1]	IC50 [1]	SMILES	Relative Acid Output (gastric secretion)
61.67	0.6 µM	Cl.c1ccc(Nc2nc(N3CCc4ccccc4C3)c3ccccc3n2)cc1 [Example 18, 2-(Phenylamino)-4-(1,2,3,4-Tetrahydroisoquinoline-2-Yl)Quinazoline Hydrochloride]	0.29
6.17	1.2 µM	Cc1ccccc1Nc1nc(N2CCc3ccccc3C2)c2ccccc2n1 [Example 21, 2-(2-Methylphenylamino)-4-(1,2,3,4-Tetrahydroisoquinoline-2-Yl)QuinazolineHydrochloride]	0.38
11.29	0.7 µM	Cc1cc(F)ccc1Nc1nc(N2CCc3ccccc3C2)c2ccccc2n1.Cl [Example 22, 2-(4-Fluoro-2-Methylphenyl -Amino)-4-(1,2,3,4-Tetrahydroisoquinoline-2-Yl)Quinazoline Hydrochloride]	0.64
4.30	2 µM	Fc1ccc(Nc2nc(N3CCc4ccccc4C3)c3ccccc3n2)cc1 [Example 23, 2-(4-Fluorophenylamino)-4-(1,2,3,4-Tetrahydroisoquinoline-2-Yl)QuinazolineHydrochloride]	0.44
5.88	2.7 µM	CC1c2ccccc2CCN1c1nc(Nc2ccc(F)cc2)nc2ccccc12.Cl (stereo not drawn) [Example 25, 2-(4-Fluorophenylamino)-4-(1-Methyl-1,2,3,4-Tetrahydroisoquinoline-2-Yl)Quinazoline Hydrochloride]	0.50
46.00	0.4 µM	Cc1cc(F)ccc1Nc1nc(N2CCc3ccccc3C2C)c2ccccc2n1.Cl (stereo not drawn) [Example 26, 2-(4-Fluoro-2-Methylphenyl-Amino)-4-(1-Methyl-1,2,3,4-Tetrahydroisoquinoline-2-Yl) Quinazoline Hydrochloride]	0.25
6.92	1.2 µM	COc1cccc2c(N3CCc4ccccc4C3)nc(Nc3ccccc3)nc12.Cl [Example 28, 8-Methoxy-2-(phenylamino)-4-(1,2,3,4-Tetrahydroisoquinoline-2-Yl)Quinazoline Hydrochloride]	0.64
3.27	2.2 µM	COc1cccc2c(N3CCc4ccccc4C3)nc(Nc3ccc(F)cc3)nc12.Cl [Example 30, 8-Methoxy-2-(4-Fluorophenyl-Amino)-4-(1,2,3,4-Tetrahydroisoquinoline-2-Yl)Quinazoline Hydrochloride]	0.76
5.13	2 µM	COc1cccc2c(N3CCc4ccccc4C3)nc(Nc3ccc(F)cc3C)nc12.Cl [Example 31, 8-Methoxy-2-(4-Fluoro-2-Methyl -Phenylamino)-4-(1,2,3,4-Tetrahydroisoquinoline-2-yl) Quinazoline Hydrochloride]	0.79
1.22	2.3 µM	COc1cccc2c(N3CCc4ccccc4C3C)nc(Nc3ccc(F)cc3)nc12.Cl (stereo not drawn) [Example 33, 8-Methoxy-2-(4-Fluorophenyl-Amino)-4-(1-Methyl-1,2,3,4-Tetrahydroisoquinoline-2-Yl) Quinazoline Hydrochloride]	0.79
2.83	1.8 µM	COc1cccc2c(N3CCc4ccccc4[C@H]3C)nc(Nc3ccc(F)cc3C)nc12.Cl [Example 35, (R)-8-Methoxy-2-(4-Fluoro-2-Methylphenylamino)-4-(1-Methyl-1,2,3,4-Tetrahydroisoquinoline-2-Yl)Quinazoline Hydrochloride]	0.79
